{
  "source": "paper PMC8237609",
  "about": "(Molecular Metabolism, 2021)",
  "biological_target": "human recombinant LANCL1 (hLANCL1) (Homo sapiens, UniProt O43813)",
  "sequence (O43813 whole entry)": "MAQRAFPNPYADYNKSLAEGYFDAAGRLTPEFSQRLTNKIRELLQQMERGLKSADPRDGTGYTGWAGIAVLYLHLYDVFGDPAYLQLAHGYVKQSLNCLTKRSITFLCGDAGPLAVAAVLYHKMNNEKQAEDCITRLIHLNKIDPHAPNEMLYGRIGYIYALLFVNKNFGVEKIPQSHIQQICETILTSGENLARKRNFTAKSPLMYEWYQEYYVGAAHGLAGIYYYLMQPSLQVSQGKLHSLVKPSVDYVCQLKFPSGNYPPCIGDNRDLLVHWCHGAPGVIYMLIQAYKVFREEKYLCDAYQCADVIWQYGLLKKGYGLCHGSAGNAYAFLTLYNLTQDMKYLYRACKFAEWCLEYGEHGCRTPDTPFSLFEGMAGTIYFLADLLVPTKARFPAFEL",
  "test": "[3H]ABA equilibrium saturation binding, nitrocellulose filtration",
  "data": [
    {"smiles": "CC1=CC(=O)CC(C)(C)C1(O)/C=C/C(C)=C\\C(=O)O", "note": "(racemic) [ABA, (±)-ABA]", "values": [
      {"measurement": "Kd", "result": "1000 ± 400", "unit": "nM"}
    ]}
  ]
}
